According to US8901133B2, “Heterocyclic compounds and uses thereof” (Infinity Pharmaceuticals, Inc., priority 2010, dated 2014):
pIC50: −log10 of the molar value.

Tests used:
[1] = target: T1, PI3Kβ (Homo sapiens, UniProt P42338); experiment: PI3 Kinase HTRF assay, PI3Kβ; type: biochemical; settings: 10 μM PIP2, 10 μM ATP; read-out: PI3K β IC50
T1 construct: purchased Millipore Corporation 14-603-K
Description: (§1) A PI3 Kinase HTRF® assay kit (cat No. 33-016) purchased from Millipore Corporation was used to screen compounds disclosed herein. This assay used specific, high affinity binding of the GRP1 pleckstrin homology (PH) domain to PIP3, the product of a Class 1A or 1B PI3 Kinase acting on its physiological substrate PIP2. During the detection phase of the assay, a complex was generated between the GST-tagged PH domain and biotinylated short chain PIP3. The biotinylated PIP3 and the GST-tagged PH domain recruited fluorophores (Streptavidin-Allophycocyanin and Europium-labeled anti-GST respectively) to form the fluorescence resonance energy transfer (FRET) architecture, generating a stable time-resolved FRET signal. The FRET complex was disrupted in a competitive manner by non-biotinylated PIP3, a product formed in the PI3 Kinase assay.
(§2) PI3 Kinase α, β, γ and δ activity was assayed using the PI3 Kinase HTRF® assay kit (catalogue No. 33-016) purchased from Millipore Corporation. Purified recombinant PI3Kα (catalogue No. 14-602-K), PI3Kβ (catalogue No. 14-603-K), PI3Kγ (catalogue No. 14-558-K) and PI3Kδ (catalogue No. 14-604-K) were obtained from Millipore Corporation. Purified recombinant PI3K enzyme was used to catalyze the phosphorylation of phosphatidylinositol 4,5-bisphosphate (PIP2 at 10 μM) to phosphatidylinositol 3,4,5-trisphosphate (PIP3) in the presence of 10 μM ATP. The assay was carried out in 384-well format and detected using a Perkin Elmer En Vision Xcite Multilabel Reader. Emission ratios were converted into percent inhibitions and imported into GraphPad Prism software. The concentration necessary to achieve inhibition of enzyme activity by 50% (IC50) was calculated using concentrations ranging from 20 μM to 0.1 nM (12-point curve). IC50 values were determined using a nonlinear regression model available in GraphPad Prism 5. […]

[2] = target: T2, PI3Kα (Homo sapiens, UniProt P42336); experiment: PI3 Kinase HTRF assay, PI3Kα; type: biochemical; settings: 10 μM PIP2, 10 μM ATP; read-out: PI3K α IC50
T2 construct: purchased Millipore Corporation 14-602-K
Description: as §1, §2

[3] = target: T3, PI3Kγ (Homo sapiens, UniProt P48736); experiment: PI3 Kinase HTRF assay, PI3Kγ; type: biochemical; settings: 10 μM PIP2, 10 μM ATP; read-out: PI3K γ IC50
T3 construct: purchased Millipore Corporation 14-558-K
Description: as §1, §2

[4] = test system: Balb/c splenic B cells; experiment: B cell activation and proliferation assay (Alamar Blue); type: cell-based; settings: Mus musculus, read-out: B cell prolif. IC50
Method: The ability of one or more subject compounds to inhibit B cell activation and proliferation is determined according to standard procedures known in the art. For example, an in vitro cellular proliferation assay is established that measures the metabolic activity of live cells. The assay is performed in a 96 well microtiter plate using Alamar Blue reduction. Balb/c splenic B cells are purified over a Ficoll-Paque™ PLUS gradient followed by magnetic cell separation using a MACS B cell Isolation Kit (Miletenyi). Cells are plated in 90 ul at 50,000 cells/well in B Cell Media (RPMI+10% FBS+Penn/Strep+50 uM bME+5 mM HEPES). A compound disclosed herein is diluted in B Cell Media and added in a 10 μl volume. Plates are incubated for 30 min at 37 C and 5% CO2 (0.2% DMSO final concentration). A 50 μl B cell stimulation cocktail is then added containing either 10 ug/ml LPS or 5 ug/ml F(ab′)2 Donkey anti-mouse IgM plus 2 ng/ml recombinant mouse IL4 in B Cell Media. Plates are incubated for 72 hours at 37° C. and 5% CO2. A volume of 15 μl of Alamar Blue reagent is added to each well and plates are incubated for 5 hours at 37 C and 5% CO2. Alamar Blue fluoresce is read at 560Ex/590Em, and IC50 or EC50 values are calculated using GraphPad Prism 5.

[5] = target: T4, PI3Kδ (Homo sapiens, UniProt O00329); experiment: PI3 Kinase HTRF assay, PI3Kδ; type: biochemical; settings: 10 μM PIP2, 10 μM ATP; read-out: PI3K δ IC50
T4 construct: purchased Millipore Corporation 14-604-K
Description: as §1, §2

T4 sequence (O00329 whole entry): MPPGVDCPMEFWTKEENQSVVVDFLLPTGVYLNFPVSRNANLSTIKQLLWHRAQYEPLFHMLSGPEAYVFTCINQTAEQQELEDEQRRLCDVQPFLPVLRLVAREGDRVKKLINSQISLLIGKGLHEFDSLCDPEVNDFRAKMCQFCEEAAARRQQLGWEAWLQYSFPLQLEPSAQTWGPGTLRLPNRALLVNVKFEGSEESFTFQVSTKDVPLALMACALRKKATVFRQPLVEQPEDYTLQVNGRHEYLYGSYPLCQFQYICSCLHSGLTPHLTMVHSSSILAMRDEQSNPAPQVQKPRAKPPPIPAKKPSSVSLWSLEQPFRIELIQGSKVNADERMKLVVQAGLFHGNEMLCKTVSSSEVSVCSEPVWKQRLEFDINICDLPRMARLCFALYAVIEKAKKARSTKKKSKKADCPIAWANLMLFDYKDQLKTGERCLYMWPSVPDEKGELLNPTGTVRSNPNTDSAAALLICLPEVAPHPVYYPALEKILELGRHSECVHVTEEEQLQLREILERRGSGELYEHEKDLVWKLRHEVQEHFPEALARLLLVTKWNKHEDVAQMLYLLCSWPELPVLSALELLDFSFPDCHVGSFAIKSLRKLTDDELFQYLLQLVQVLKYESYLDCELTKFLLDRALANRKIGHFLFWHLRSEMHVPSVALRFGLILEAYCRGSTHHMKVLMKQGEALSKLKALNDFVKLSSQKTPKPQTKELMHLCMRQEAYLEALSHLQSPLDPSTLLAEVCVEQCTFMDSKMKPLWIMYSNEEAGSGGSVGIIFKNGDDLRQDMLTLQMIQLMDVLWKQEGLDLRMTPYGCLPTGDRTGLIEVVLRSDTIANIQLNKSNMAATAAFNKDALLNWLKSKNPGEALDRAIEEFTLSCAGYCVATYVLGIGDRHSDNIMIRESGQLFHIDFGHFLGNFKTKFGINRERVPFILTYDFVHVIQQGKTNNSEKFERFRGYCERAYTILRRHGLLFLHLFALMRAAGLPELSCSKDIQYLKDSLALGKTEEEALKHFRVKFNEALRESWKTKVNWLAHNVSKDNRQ
T4 sequence (P27986 whole entry partner): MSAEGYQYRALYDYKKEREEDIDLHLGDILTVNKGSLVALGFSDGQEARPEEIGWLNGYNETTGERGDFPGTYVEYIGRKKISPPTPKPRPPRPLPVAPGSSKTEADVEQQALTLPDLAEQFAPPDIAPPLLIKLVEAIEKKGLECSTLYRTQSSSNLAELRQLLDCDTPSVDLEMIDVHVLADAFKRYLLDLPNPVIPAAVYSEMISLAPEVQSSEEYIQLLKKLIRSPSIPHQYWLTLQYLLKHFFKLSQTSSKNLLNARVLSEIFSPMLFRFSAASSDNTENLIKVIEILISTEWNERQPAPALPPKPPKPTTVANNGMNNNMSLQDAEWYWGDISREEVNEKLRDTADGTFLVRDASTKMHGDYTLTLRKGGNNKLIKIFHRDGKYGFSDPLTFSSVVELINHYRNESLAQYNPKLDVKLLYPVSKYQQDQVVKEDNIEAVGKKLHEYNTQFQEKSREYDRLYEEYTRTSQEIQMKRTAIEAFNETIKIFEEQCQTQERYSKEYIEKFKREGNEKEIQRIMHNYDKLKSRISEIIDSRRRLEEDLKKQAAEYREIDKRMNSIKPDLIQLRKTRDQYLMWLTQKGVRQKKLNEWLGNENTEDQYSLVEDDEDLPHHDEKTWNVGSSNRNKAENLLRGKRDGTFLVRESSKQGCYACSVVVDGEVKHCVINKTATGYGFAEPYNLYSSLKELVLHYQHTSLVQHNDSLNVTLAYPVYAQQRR
T2 sequence (P42336 whole entry): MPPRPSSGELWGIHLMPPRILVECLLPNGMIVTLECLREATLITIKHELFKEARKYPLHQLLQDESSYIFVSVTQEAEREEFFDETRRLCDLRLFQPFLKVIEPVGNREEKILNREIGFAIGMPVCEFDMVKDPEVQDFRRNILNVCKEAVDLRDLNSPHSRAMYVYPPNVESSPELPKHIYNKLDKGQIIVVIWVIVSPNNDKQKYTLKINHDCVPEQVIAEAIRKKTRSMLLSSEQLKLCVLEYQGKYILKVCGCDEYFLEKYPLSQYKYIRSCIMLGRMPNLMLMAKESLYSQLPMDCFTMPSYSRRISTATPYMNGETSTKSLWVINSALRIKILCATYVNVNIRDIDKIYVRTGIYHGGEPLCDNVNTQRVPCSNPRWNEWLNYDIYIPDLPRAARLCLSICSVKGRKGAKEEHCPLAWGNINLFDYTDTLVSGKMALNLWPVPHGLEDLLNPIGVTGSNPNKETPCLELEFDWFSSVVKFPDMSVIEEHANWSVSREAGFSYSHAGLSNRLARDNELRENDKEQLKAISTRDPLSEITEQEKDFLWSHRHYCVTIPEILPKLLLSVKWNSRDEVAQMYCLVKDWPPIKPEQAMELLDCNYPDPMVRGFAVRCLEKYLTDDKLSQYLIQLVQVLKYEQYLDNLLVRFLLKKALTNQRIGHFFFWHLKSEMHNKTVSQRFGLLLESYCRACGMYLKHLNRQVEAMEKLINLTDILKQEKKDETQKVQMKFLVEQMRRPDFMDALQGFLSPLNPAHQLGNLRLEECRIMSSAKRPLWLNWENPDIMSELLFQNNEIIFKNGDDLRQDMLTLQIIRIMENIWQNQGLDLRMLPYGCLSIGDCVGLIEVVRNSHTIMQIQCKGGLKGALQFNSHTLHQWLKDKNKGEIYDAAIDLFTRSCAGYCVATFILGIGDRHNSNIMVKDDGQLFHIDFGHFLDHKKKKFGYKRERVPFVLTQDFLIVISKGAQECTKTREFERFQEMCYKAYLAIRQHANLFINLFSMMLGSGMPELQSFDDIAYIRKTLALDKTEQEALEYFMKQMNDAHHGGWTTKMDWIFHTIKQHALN
T2 sequence (P27986 whole entry partner): as the sequence (P27986 whole entry partner) above
T3 sequence (P48736 whole entry): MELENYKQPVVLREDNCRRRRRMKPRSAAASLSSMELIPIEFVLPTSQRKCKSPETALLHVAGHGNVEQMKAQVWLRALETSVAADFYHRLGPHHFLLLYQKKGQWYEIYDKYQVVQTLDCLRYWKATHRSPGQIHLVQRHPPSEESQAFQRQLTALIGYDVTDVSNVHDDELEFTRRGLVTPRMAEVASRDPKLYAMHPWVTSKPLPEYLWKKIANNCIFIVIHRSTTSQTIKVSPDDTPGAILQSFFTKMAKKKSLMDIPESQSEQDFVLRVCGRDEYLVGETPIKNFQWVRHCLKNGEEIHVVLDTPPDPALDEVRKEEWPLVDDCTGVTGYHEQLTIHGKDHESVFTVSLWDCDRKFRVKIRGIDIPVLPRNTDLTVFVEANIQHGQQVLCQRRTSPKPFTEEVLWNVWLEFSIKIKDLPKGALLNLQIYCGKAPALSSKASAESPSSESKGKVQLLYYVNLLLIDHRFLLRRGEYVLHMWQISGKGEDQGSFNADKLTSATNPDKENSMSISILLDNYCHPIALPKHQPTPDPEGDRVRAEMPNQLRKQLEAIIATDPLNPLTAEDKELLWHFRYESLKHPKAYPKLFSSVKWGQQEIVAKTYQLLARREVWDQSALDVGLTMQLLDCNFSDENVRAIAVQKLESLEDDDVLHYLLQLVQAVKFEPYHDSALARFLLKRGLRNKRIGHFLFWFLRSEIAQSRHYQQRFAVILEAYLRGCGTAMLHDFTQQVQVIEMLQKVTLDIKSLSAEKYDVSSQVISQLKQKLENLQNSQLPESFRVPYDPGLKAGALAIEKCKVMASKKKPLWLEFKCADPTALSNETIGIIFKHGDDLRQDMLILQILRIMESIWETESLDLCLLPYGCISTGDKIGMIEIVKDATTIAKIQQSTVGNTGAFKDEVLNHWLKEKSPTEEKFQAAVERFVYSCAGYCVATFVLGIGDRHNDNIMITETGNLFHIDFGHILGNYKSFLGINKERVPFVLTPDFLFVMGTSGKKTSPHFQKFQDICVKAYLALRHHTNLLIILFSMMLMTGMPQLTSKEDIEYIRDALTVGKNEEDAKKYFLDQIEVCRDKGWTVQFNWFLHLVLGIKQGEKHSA
T1 sequence (P42338 whole entry): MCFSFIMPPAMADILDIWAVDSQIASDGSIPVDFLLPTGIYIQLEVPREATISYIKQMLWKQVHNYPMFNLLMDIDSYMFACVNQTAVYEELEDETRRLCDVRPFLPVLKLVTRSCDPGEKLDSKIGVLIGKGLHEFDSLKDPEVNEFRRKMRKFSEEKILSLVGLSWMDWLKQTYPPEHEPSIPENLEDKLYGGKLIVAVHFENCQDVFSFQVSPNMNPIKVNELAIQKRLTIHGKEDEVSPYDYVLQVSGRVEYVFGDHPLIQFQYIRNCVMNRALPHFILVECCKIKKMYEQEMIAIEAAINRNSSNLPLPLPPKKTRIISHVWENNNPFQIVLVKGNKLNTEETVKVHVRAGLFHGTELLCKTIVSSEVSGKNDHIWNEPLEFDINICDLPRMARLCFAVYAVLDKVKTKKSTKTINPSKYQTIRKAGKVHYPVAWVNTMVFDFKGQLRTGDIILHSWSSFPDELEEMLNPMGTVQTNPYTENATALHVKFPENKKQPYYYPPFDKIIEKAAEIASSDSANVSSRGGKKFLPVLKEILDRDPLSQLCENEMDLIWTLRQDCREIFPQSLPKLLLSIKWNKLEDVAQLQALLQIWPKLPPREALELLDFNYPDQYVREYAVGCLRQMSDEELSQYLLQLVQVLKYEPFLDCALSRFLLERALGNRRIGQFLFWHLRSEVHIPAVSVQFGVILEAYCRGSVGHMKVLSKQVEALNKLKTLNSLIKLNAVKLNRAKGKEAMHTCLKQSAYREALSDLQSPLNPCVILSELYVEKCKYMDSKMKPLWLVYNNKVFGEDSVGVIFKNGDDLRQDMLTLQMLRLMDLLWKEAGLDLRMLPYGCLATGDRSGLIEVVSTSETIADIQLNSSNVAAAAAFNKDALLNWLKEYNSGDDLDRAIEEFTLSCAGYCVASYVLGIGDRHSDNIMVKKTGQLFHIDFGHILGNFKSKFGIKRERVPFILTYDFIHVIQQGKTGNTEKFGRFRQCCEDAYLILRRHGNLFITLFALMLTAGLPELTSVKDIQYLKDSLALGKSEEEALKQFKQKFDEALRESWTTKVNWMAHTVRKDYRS
T1 sequence (P27986 whole entry partner): as the sequence (P27986 whole entry partner) above

Compound	pIC50 [1]	pIC50 [2]	pIC50 [3]	pIC50 [4]	pIC50 [5]
C[C@H](Nc1ncnc2[nH]cnc12)c1cc2cccc(Cl)c2c(CCN2CCOCC2)n1 [Compound 4]	> 5.00	> 5.00	> 5.00	> 7.00	> 7.00
C[C@H](Nc1ncnc2[nH]cnc12)c1cc2cccc(Cl)c2c(CN2CCOCC2)n1 [Compound 7]	< 5.00	< 5.00	> 5.00	> 7.00	> 7.00
C[C@H](Nc1ncnc2[nH]cnc12)c1cc2cccc(Cl)c2c(CN2CCC(F)(F)C2)n1 [Compound 8]	> 5.00	> 5.00	> 6.00	> 6.00	> 6.00
C[C@H](Nc1ncnc2[nH]cnc12)c1cc2cccc(Cl)c2c(C(=O)N2CCOCC2)n1 [Compound 13]	> 5.00	< 5.00	> 7.00	> 7.00	> 7.00
C[C@H](Nc1ncnc2[nH]cnc12)c1cc2cccc(Cl)c2c(C(=O)N2CCCC2)n1 [Compound 14]	< 5.00	< 5.00	> 5.00	> 7.00	> 7.00
C[C@H](Nc1ncnc2[nH]cnc12)c1cc2cccc(Cl)c2c(C(=O)N2CCN(C)CC2)n1 [Compound 15]	< 5.00	> 5.00	> 5.00	> 7.00	> 7.00
C[C@H](Nc1ncnc2[nH]cnc12)c1cc2cccc(Cl)c2c(C(=O)N2C3CCC2COC3)n1 [Compound 16]	> 5.00	< 5.00	> 5.00	> 7.00	> 7.00
C[C@@H]1CN(C(=O)c2nc([C@H](C)Nc3ncnc4[nH]cnc34)cc3cccc(Cl)c23)CCN1 [Compound 17]	> 5.00	< 5.00	< 5.00	> 6.00	> 7.00
C[C@H](Nc1ncnc2[nH]cnc12)c1cc2cccc(Cl)c2c(C(=O)N2CCN[C@@H](C)C2)n1 [Compound 18]	> 6.00	> 5.00	> 5.00	> 6.00	> 7.00
C[C@H](Nc1ncnc2[nH]cnc12)c1cc2cccc(Cl)c2c(C(=O)N2CC3CCC(C2)O3)n1 [Compound 19]	> 5.00	< 5.00	> 6.00	> 7.00	> 7.00
C[C@H](Nc1ncnc2[nH]cnc12)c1cc2cccc(Cl)c2c(C(=O)N2CCC(F)(F)C2)n1 [Compound 20]	< 5.00	< 5.00	> 6.00	> 7.00	> 7.00
C[C@H](Nc1ncnc2[nH]cnc12)c1cc2cccc(Cl)c2c(C(=O)N2CC(F)(F)C2)n1 [Compound 21]	< 5.00	< 5.00	> 6.00	> 7.00	> 7.00
C[C@H](Nc1ncnc2[nH]cnc12)c1cc2cccc(Cl)c2c(C(=O)NC2CCC2)n1 [Compound 23]	< 5.00	< 5.00	> 5.00	> 7.00	> 7.00
C[C@H](Nc1ncnc2[nH]cnc12)c1cc2cccc(Cl)c2c(C(=O)N2CCC2)n1 [Compound 24]	> 5.00	< 5.00	> 5.00	> 6.00	> 6.00
C[C@H](Nc1ncnc2[nH]cnc12)c1cc2cccc(Cl)c2c(C(=O)Nc2ccccc2)n1 [Compound 25]	> 5.00	< 5.00	> 5.00	> 6.00	> 7.00
C[C@H](Nc1ncnc2[nH]cnc12)c1cc2cccc(Cl)c2c(C(=O)NCc2ccccc2)n1 [Compound 26]	> 5.00	< 5.00	> 6.00	> 7.00	> 7.00
C[C@H](Nc1ncnc2[nH]cnc12)c1cc2cccc(Cl)c2c(CC(=O)N2CCCC2)n1 [Compound 36]	> 5.00	< 5.00	> 5.00	> 6.00	> 7.00
C[C@H](Nc1ncnc2[nH]cnc12)c1cc2cccc(Cl)c2c(CC(=O)N2CCN(C)CC2)n1 [Compound 37]	< 5.00	< 5.00	< 5.00	> 6.00	> 6.00
CC(=O)NCCOc1nc([C@H](C)Nc2ncnc3[nH]cnc23)cc2cccc(Cl)c12 [Compound 40, (S)—N-(2-(3-(1-(9H-purin-6-ylamino)ethyl)-8-chloroisoquinolin-1-yloxy)ethyl)acetamide]	> 5.00	> 5.00	> 6.00	> 7.00	> 7.00
C[C@H](Nc1ncnc2[nH]cnc12)c1cc2cccc(Cl)c2c(OCC(=O)N2CCN(C)CC2)n1 [Compound 42]	> 5.00	< 5.00	< 5.00	> 6.00	> 7.00
C[C@H](Nc1ncnc2[nH]cnc12)c1cc2cccc(Cl)c2c(OCC(=O)N2CCOCC2)n1 [Compound 43]	< 5.00	> 5.00	> 6.00	> 7.00	> 7.00
CNC(=O)COc1nc([C@H](C)Nc2ncnc3[nH]cnc23)cc2cccc(Cl)c12 [Compound 44]	> 5.00	> 5.00	> 6.00	> 6.00	> 7.00
C[C@H](Nc1ncnc2[nH]cnc12)c1cc2cccc(Cl)c2c(OCC(=O)N2CCCC2)n1 [Compound 45]	< 5.00	< 5.00	> 5.00	> 6.00	> 7.00
C[C@H](Nc1ncnc2[nH]cnc12)c1cc2cccc(Cl)c2c(N2CCN(C)CC2)n1 [Compound 46, (S)—N-(1-(8-chloro-1-(4-methylpiperazin-1-yl)isoquinolin-3-yl)ethyl)-9H-purin-6-amine]	> 5.00	< 5.00	< 5.00	> 7.00	> 7.00
CC(C)N1CCC(Oc2nc([C@H](C)Nc3ncnc4[nH]cnc34)cc3cccc(Cl)c23)CC1 [Compound 47, (S)—N-(1-(8-chloro-1-(1-isopropylpiperidin-4-yloxy)isoquinolin-3-yl)ethyl)-9H-purin-6-amine]	> 5.00	> 5.00	< 5.00	> 7.00	> 7.00
C[C@H](Nc1ncnc2[nH]cnc12)c1cc2c(F)cccc2c(CCN2CCOCC2)n1 [Compound 53]	< 5.00	< 5.00	< 5.00	> 7.00	> 7.00
COCCN(C)C(=O)c1nc([C@H](C)Nc2ncnc3cccnc23)cc2cccc(Cl)c12 [Compound 244]	< 5.00	< 5.00	> 5.00	–	> 6.00
C[C@H](Nc1ncnc2cccnc12)c1cc2cccc(Cl)c2c(C(=O)N2CCOC[C@H]2C)n1 [Compound 245]	< 5.00	< 5.00	> 6.00	–	> 6.00
C[C@H](Nc1ncnc2scnc12)c1cc2cccc(Cl)c2c(C(=O)N2CCOC[C@H]2C)n1 [Compound 246]	> 5.00	> 5.00	> 5.00	–	> 6.00
COCCN(C)C(=O)c1nc([C@H](C)Nc2ncnc3scnc23)cc2cccc(Cl)c12 [Compound 249]	> 5.00	> 5.00	> 6.00	–	> 7.00
